In patent publication US10828315B2 (Madrigal Pharmaceuticals, Inc., priority 2013, dated 2020):
Where “and” joins values, the source holds several entries; their conditions need not be identical. Equal values may be shown once. Read-outs that look alike come from different tables or passages of the source.

Assays:
HER2 [1] = test: HER2 degradation assay with BT-474 cell line (Example 12, FACS); type: cell-based, human
[2] = test system: human breast cancer cell line BT-474; test: Cytotoxicity assay (CellTiter-Glo, 72 h), BT-474; type: cell-based; settings: read-out: Cytotoxicity (IC50, nM) BT-474
Procedure: (§1) Cytotoxicity of SDC-TRAP molecules was determined in three cancer cell lines. […] 80 μL of CellTiter-Glo was added to each well, followed by room temperature incubation in the dark for 15 minutes. Cell was determined by luminescence. IC50 was calculated using XLfit™ software.

[3] = test system: human urinary bladder cancer cell line RT-112; test: Cytotoxicity assay (CellTiter-Glo, 72 h), RT-112; type: cell-based; settings: read-out: Cytotoxicity (IC50, nM) RT-112
Procedure: as §1

[4] = test system: human urinary bladder cancer cell line SW780; test: Cytotoxicity assay (CellTiter-Glo, 72 h), SW780; type: cell-based; settings: read-out: Cytotoxicity (IC50, nM) SW-780
Procedure: as §1

[5] = Mouse plasma stability protocol, up to 1 h (Examples 16-18)
Procedure: (§2) 150 ng/mL solution of SDC-TRAP-0002 in methanol was prepared using the internal standard spiking solution. This solution was used to precipitate all plasma samples in the study. 200 μL was pipetted into a 96 deepwell plate over dry ice. 10 μL of 1 mM stock in DMSO was added to a 1.5 mL microfuge tube, then 990 μL of plasma. Samples were mixed by vortex, then 50 μL of each sample was added in triplicate to a 96-well plate containing internal standard solution. This was designated the 0 hour time point sample. 250 μL of the remaining plasma sample was added to each of four 96 deepwell plates—one per time point. Samples were incubated at 37° C. with gentle shaking for 0.25, 0.5, and 1 hour. After each time point, one plate of each sample was removed from the shaker and placed on wet ice for approximately 2 minutes. 50 μL at plasma aliquots (in triplicate) were added to the deepwell plate containing internal standard solution. After the last time point was extracted, the 96 deepwell plate was vortexed, then centrifuged at 2-8° C. 150 μL of supernatant was collected and 25 μL at of water was added. Samples were mixed and analyzed by LC-MS/MS.
(§3) 990 μL mouse plasma aliquots from a common stock were spiked with 10 μL of 1 mM stock of one of seven SDC-TRAP samples identified in the table below. Each sample was mixed and divided into 250 μL aliquots, each representing time points 0, 15 minutes, 30 minutes or 1 hour. At the prescribed time point, 3×50 μL samples were each mixed with 200 μL of methanol containing internal standard and held on dry ice until all time point samples were extracted. The samples collectively were vortex mixed for 1.5 minutes at 1500 rpm, then centrifuged at 4400 rpm for 10 minutes at 8° C.

HER2 [6] = test: HER2 degradation in BT-474 cells (Example 3, Methods 1 and 2); type: cell-based, human
Text: This example illustrates how a HER2 degradation assay may be used as a test to determine and select Hsp90-targeting moieties suitable for use in SDC-TRAPs of the invention, and further illustrates the ability of SDC-TRAPs to target cells preferentially expressing Hsp90. Such a test may further be used to determine the Hsp90 binding ability of SDC-TRAPs of the invention, as well as through competitive binding assays and cell-based Hsp90 client protein degradation assays known in the art.
After treatment, each cytoplasmic sample is prepared from 1×10^6 cells by incubation of cell lysis buffer (#9803, Cell Signaling Technology) on ice for 10 minutes. The resulting supernatant used as the cytosol fractions is dissolved with sample buffer for SDS-PAGE and run on a SDS-PAGE gel, blotted onto a nitrocellulose membrane by using semi-dry transfer. Non-specific binding to nitrocellulose is blocked with 5% skim milk in TBS with 0.5% Tween at room temperature for 1 hour, then probed with anti-HER2/ErB2 mAb (rabbit IgG, #2242, Cell Signaling) and anti-Tubulin (T9026, Sigma) as housekeeping control protein. HRP-conjugated goat anti-rabbit IgG (H+L) and HRP-conjugated horse anti-mouse IgG (H+L) are used as secondary Ab (#7074#7076, Cell Signaling) and LumiGLO reagent, 20× Peroxide (#7003, Cell Signaling) is used for visualization. The Hsp90 client protein HER2 is degraded when cells are treated with Hsp90-targeting moieties or SDC-TRAPs of the invention.
BT-474 cells are plated in the interior 60 wells of a 96 well black clear bottom plate (20,000 cells/well) in DMEM medium, with DMEM media in the surrounding 36 wells, and incubated at 37° C. with 5% CO2 overnight. On the second day, concentration response curve source plates are produced (10 point, 3-fold dilution of compounds in DMSO) followed by a 1:30 dilution in an intermediate dilution plate containing DMEM. Compound is transferred from the intermediate plate to the cell plate at a dilution of 1:10. The cells are then incubated at 37° C. with 5% CO2 for 24 hours.
Cells are then fixed in 4% phosphate-buffered paraformaldehyde for 30 minutes at room temperature and then permeabilized by washing five times with 0.1% Triton X-100 in PBS for 5 minutes at room temperature on a shaker. […] Cells are washed five times with 0.1% Tween-20 in PBS for 5 minutes at room temperature on a shaker and incubated with fluorescently-labeled secondary antibody (LI-COR, #926-32211) diluted 1:1000 in blocking buffer, and DRAQ5 nuclear stain (Biostatus Limited, # DRAQ5) diluted 1:10,000, at room temperature on a shaker for 1 hour. Cells are washed 5 times with 0.1% Tween-20 in PBS for 5 minutes at room temperature on a shaker and imaged on a LI-COR Odyssey imaging station. The raw data is normalized to DRAQ5 and the HER2 EC50 is calculated using XLfit™.

[7] = Artificial membrane permeability assay (PAMPA); settings: incubation 5 h, first table
Procedure: Pre-coated PAMPA plates were warmed to room temperature for at least 30 minutes prior to adding assay components.
Stock solutions were prepared with the SDC-TRAP molecules to be tested. In order to make a working solution, either 50 μL of 100 μM Stock in DMSO+950 μL of PBS or 50 μL of 200 μM stock was added to 96 deep well plate, resulting in a 5 μM final concentration or a 10 μM final concentration, respectively. 3000 μL of the working solution containing each compound to be tested was added to the appropriate well of a donor PAMPA plate. 200 μL of PBS was added into the corresponding wells of an acceptor PAMPA plates.
The acceptor plate was lowered onto the donor plate and allowed to incubate for five hours. After five hours, a 50 μL aliquot was removed from each well of each plate and added into a new 96 deep-well plate.
100 μL of methanol containing an internal standard was added to each aliquot and analyzed by LC/MS.
In order to calculate the permeability for each SDC-TRAP molecule and the control molecules, the following formula was used:

[8] = mouse, plasma, 1 h
Procedure: as §2, §3

[9] = % Remaining of parent after 1 h incubation in mouse plasma at 37° C. (10 μM)
[10] = Tissue Distribution Data for SDC-TRAP-0098, Time (h) 0.083
[11] = Tissue Distribution Data for SDC-TRAP-0098, Time (h) 1
[12] = Tissue Distribution Data for SDC-TRAP-0098, Time (h) 6
[13] = Tissue Distribution Data for SDC-TRAP-0098, Time (h) 24

## CCNC(=O)c1nnc(-c2cc(C(C)C)c(O)cc2O)n1-c1ccc(C(=O)N2CCN(c3cc(C)c(OC(=O)Nc4cccc5c4CN(C4CCC(=O)NC4=O)C5=O)c(C)c3)CC2)cc1 (stereo not drawn) [SDC-TRAP-0178, 4-(4-(4-(3-(2,4-dihydroxy-5-isopropylphenyl)-5-(ethylcarbamoyl)-4H-1,2,4-triazol-4-yl)benzoyl)piperazin-1-yl)-2,6-dimethylphenyl (2-(2,6-dioxopiperidin-3-yl)-1-oxoisoindolin-4-yl)carbamate]
HER2 [1]
  IC50: 170 nM and 91 nM
HER2 [1]; BT-474 cells, overnight
  IC50: 91 nM
[2]; BT-474, 72 h
  IC50: 37 nM
[3]; RT-112, 72 h
  IC50: 29 nM
[4]; SW780, 72 h
  IC50: > 10000 nM
After SDC-TRAP-0178, 1 h
  Plasma Conc.: 217000 nM
  Tumor Conc.: 12.8 nmol/g of tissue
  Tumor/Plasma Ratio: 0.0589
After SDC-TRAP-0178, 6 h
  Plasma Conc.: 4510 nM
  Tumor Conc.: 7.17 nmol/g of tissue
  Tumor/Plasma Ratio: 1.59
After SDC-TRAP-0178, 24 h
  Plasma Conc.: 28 nM
  Tumor Conc.: 2.81 nmol/g of tissue
  Tumor/Plasma Ratio: 100
After SDC-TRAP-0178, 48 h
  Plasma Conc.: 241 nM
  Tumor Conc.: 1.01 nmol/g of tissue
After SDC-TRAP-0178, […]
  Tumor/Plasma Ratio: 0.0179
[5]; [9]
  % Remaining (1 h): 82.0%
[5]; mouse plasma, 37° C., 10 μM
  % Remaining (1 h): 82.0%

## CC(C)c1cc(-c2nnc(O)n2-c2ccc3c(ccn3CCN(C)C(=O)CCCc3nc4cc(N(CCCl)CCCl)ccc4n3C)c2)c(O)cc1O [SDC-TRAP-0039, (5-(bis(2-chloroethyl)amino)-1-methyl-1H-benzo[d]imidazol-2-yl)-N-(2-(5-(3-(2,4-dihydroxy-5-isopropylphenyl)-5-hydroxy-4H-1,2,4-triazol-4-yl)-1H-indol-1-yl)ethyl)-N-methylbutanamide]
HER2 [6]
  IC50: 2940 nM
HER2 [1]; BT-474 cells, overnight
  IC50: 2920 nM

## C=CCNC1=C2C[C@@H](C)C[C@H](OC)[C@H](O)[C@@H](C)/C=C(\C)[C@H](OC(N)=O)[C@@H](OC)/C=C\C=C(/C)C(=O)NC(=CC1=O)C2=O [17-AAG, reference compound]
HER2 [6]; 0.5 μM, overnight
  degradation of HER2 (western blot): partial degradation of HER2

## CCc1c2c(nc3ccc(O)cc13)-c1cc3c(c(=O)n1C2)COC(=O)C3(CC)OC(=O)N(C)CCn1ccc2cc(-n3c(O)nnc3-c3cc(C(C)C)c(O)cc3O)ccc21 (stereo not drawn) [SDC-TRAP-0038, 4,11-diethyl-9-hydroxy-3,14-dioxo-3,4,12,14-tetrahydro-1H-pyrano[3′,4′:6,7]indolizino[1,2-b]quinolin-4-yl (2-(5-(3-(2,4-dihydroxy-5-isopropylphenyl)-5-hydroxy-4H-1,2,4-triazol-4-yl)-1H-indol-1-yl)ethyl)(methyl)carbamate]
HER2 [6]
  IC50: > 5000 nM
HER2 [1]
  IC50: > 5000 nM

## CCNC(=O)c1nnc(-c2cc(C(C)C)c(O)cc2O)n1-c1ccc2c(c1)CN(Cc1cc(OC)c(OC(=O)Nc3cccc4c3CN(C3CCC(=O)NC3=O)C4=O)c(OC)c1)C2 (stereo not drawn) [SDC-TRAP-0196, 4-((5-(3-(2,4-dihydroxy-5-isopropylphenyl)-5-(ethylcarbamoyl)-4H-1,2,4-triazol-4-yl)isoindolin-2-yl)methyl)-2,6-dimethoxyphenyl (2-(2,6-dioxopiperidin-3-yl)-1-oxoisoindolin-4-yl)carbamate]
HER2 [1]
  IC50: 89 nM
[2]; BT-474, 72 h
  IC50: 17 nM
[3]; RT-112, 72 h
  IC50: 31 nM
[4]; SW780, 72 h
  IC50: > 10000 nM
[7]
  Mass Retention: 22.3%
[5]; [9]
  % Remaining (1 h): 66.2%

## CCc1c2c(nc3ccc(O)cc13)-c1cc3c(c(=O)n1C2)COC(=O)C3(CC)OC(=O)CCC(=O)N1CCN(Cc2ccc(-n3c(O)nnc3-c3cc(C(C)C)c(O)cc3O)cc2)CC1 (stereo not drawn) [SDC-TRAP-0043, 4,11-diethyl-9-hydroxy-3,14-dioxo-3,4,12,14-tetrahydro-1H-pyrano[3′,4′:6,7]indolizino[1,2-b]quinolin-4-yl 4-(4-(4-(3-(2,4-dihydroxy-5-isopropylphenyl)-5-hydroxy-4H-1,2,4-triazol-4-yl)benzyl)piperazin-1-yl)-4-oxobutanoate]
HER2 [6]
  IC50: 2140 nM
HER2 [1]
  IC50: 2140 nM

## COc1ccc(-c2cnoc2-c2cc(OC)c(OC)c(OC)c2)cc1OC(=O)N1CCN(Cc2ccc(-n3c(O)nnc3-c3cc(C(C)C)c(O)cc3O)cc2)CC1 [SDC-TRAP-0098, 2-Methoxy-5-(5-(3,4,5-trimethoxyphenyl)isoxazol-4-yl)phenyl-4-(4-(3-(2,4-dihydroxy-5-isopropylphenyl)-5-hydroxy-4H-1,2,4-triazol-4-yl)benzyl) piperazine-1-carboxylate]
HER2 [1]
  IC50: 232 nM
[2]; BT-474, 72 h
  IC50: 41 nM
[3]; RT-112, 72 h
  IC50: 22 nM
[4]; SW780, 72 h
  IC50: 257 nM
[10]
  Tumor Conc.: 5.02 nmol/g of tissue
  Tumor/Plasma Ratio: 0.01
[11]
  Tumor Conc.: 4.62 nmol/g of tissue
  Tumor/Plasma Ratio: 0.62
[12]
  Tumor Conc.: 3.18 nmol/g of tissue
  Tumor/Plasma Ratio: 8.22
[13]
  Tumor Conc.: 0.920 nmol/g of tissue
  Tumor/Plasma Ratio: 300
Tissue Distribution Data for SDC-TRAP-0098, Time (h) 48
  Tumor Conc.: 0.182 nmol/g of tissue
[5]; [9]
  % Remaining (1 h): 96.0%
[5]; mouse plasma, 1 h
  % Remaining (1 h): 96.0%

## CC(C)c1cc(-c2nnc(O)n2-c2ccc3c(ccn3CCOCCN(C)C(=O)CCCc3nc4cc(N(CCCl)CCCl)ccc4n3C)c2)c(O)cc1O [SDC-TRAP-0040, 4-(5-(bis(2-chloroethyl)amino)-1-methyl-1H-benzo[d]imidazol-2-yl)-N-(2-(2-(5-(3-(2,4-dihydroxy-5-isopropylphenyl)-5-hydroxy-4H-1,2,4-triazol-4-yl)-1H-indol-1-yl)ethoxy)ethyl)-N-methylbutanamide]
HER2 [6]
  IC50: 4740 nM
HER2 [1]; BT-474 cells, overnight
  IC50: 4740 nM

## CC(C)c1cc(-c2nnc(O)n2-c2ccc(CN3CCN(C(=O)ONC(=O)CCCCCCC(=O)Nc4ccccc4)CC3)cc2)c(O)cc1O [SDC-TRAP-0117, N1-((4-(4-(3-(2,4-dihydroxy-5-isopropylphenyl)-5-hydroxy-4H-1,2,4-triazol-4-yl)benzyl)piperazine-1-carbonyl)oxy)-N8-phenyloctanediamide]
[2]; BT-474, 72 hours
  IC50: 452 nM
[3]; RT-112, 72 hours
  IC50: 152 nM
[4]; SW780, 72 hours
  IC50: 284 nM
[8]; 10 µM
  % Remaining (1 h): 3.97%

## CC(C)c1cc(-c2nnc(O)n2-c2ccc(CN3CCN(C(=O)c4ccc(CCc5c[nH]c6nc(N)[nH]c(=O)c56)cc4)CC3)cc2)c(O)cc1O [SDC-TRAP-0068, 2-amino-5-(4-(4-(4-(3-(2,4-dihydroxy-5-isopropylphenyl)-5-hydroxy-4H-1,2,4-triazol-4-yl)benzyl)piperazine-1-carbonyl)phenethyl)-3H-pyrrolo[2,3-d]pyrimidin-4(7H)-one]
[2]; BT-474, 72 hours
  IC50: 70 nM
[3]; RT-112, 72 hours
  IC50: 74 nM
[4]; SW780, 72 hours
  IC50: 202 nM
[8]; 10 µM
  % Remaining (1 h): 96.5%
[8]; 10 μM
  % Remaining (1 h): 96.5%

## Nc1cccc2c1CN(C1CCC(=O)NC1=O)C2=O (stereo not drawn) [Lenalidomide, lenalidomide, reference compound]
[2]; BT-474, 72 hours
  IC50: > 10000 nM
[3]; RT-112, 72 hours
  IC50: > 10000 nM
[4]; SW780, 72 hours
  IC50: > 10000 nM
female, SCID, mouse, in vivo, 24 h
  Tumor Conc.: 0.0574 nmol/g of tissue
female, SCID, mouse, in vivo, 48 h
  Tumor Conc.: 0.0143 nmol/g of tissue
mouse, in vivo
  Plasma Conc.: BQL
  Tumor Conc.: BQL
[7]
  Mass Retention: 26.0%
